The values that follow come from patent US9561232B2, “Low dose noribogaine for treating nicotine addiction and preventing relapse of nicotine use” (priority 2014, dated 2017).

Each structure is given as a SMILES string. Bounds are passed on as bounds.

The subject of one series is habitual smoker. Nature of the series: Low dose intranasal noribogaine on smoking craving. The class given is in vivo, human. The note with it: nanogram amount absorbed intranasally, during a period of several hours. An excerpt:
A habitual smoker intranasally absorbed a nanogram amount of noribogaine hydrochloride. […] The patient was unaware during that period of any nicotine or smoking cravings.

Series [1] is described as follows: Ascending single oral dose pharmacokinetics of noribogaine in healthy volunteers (plasma, urine, LCMSMS).
The test system of a further series is nicotine dependent rats. Nature of the series: Nicotine self-administration test. The class given is in vivo, Sprague-Dawley rats. The note with it: all treatments, repeated measure ANOVA, P>0.05.

For the compound `CC[C@@H]1C[C@H]2CC3c4[nH]c5ccc(O)cc5c4CCN(C2)C31.Cl` [noribogaine hydrochloride], in the series on habitual smoker, the craving to smoke entry is reported as “any craving to smoke stopped”.
For the compound `CC[C@H]1C[C@@H]2C[C@H]3c4[nH]c5ccc(OC6OC(C(=O)O)C(O)C(O)C6O)cc5c4CCN(C2)[C@@H]13` (some centres unmarked) [Noribogaine glucuronide, noribogaine glucuronide], the “time by which detected in plasma of all subjects” value in series [1] (30 mg and 60 mg noribogaine dose groups) is at most 0.75 h. The “proportion of Cmax and AUC relative to noribogaine” value in series [1] (both dose groups (30 mg, 60 mg)) is recorded as 3-4%. Besides, the “time of peak concentrations after noribogaine dosing” value in series [1] (noribogaine glucuronide in plasma, 30 mg and 60 mg dose groups) lay within 3 to 4 h.
With `c1cnc2cc3c(cc2n1)[C@@H]1CNC[C@H]3C1` [varenicline, Varenicline, reference compound], the “inactive lever press during nicotine self-administration” value in the series on nicotine dependent rats is “no significant main effect of treatment”.
